Values quoted from earlier work, collected in US20240335414A1, “SPECIALIZED COMBINATIONS FOR MENTAL DISORDERS OR MENTAL ENHANCEMENT” (TACTOGEN INC, priority 2021, published 2024).

Key:
[1] = system: neuritogenesis
[2] = molecular target: 5-HT1B (Homo sapiens, UniProt P28222)
[3] = pooled Phase 2 clinical trials
[4] = MDMA arm, first of two Phase 3 trials, MDMA-assisted therapy

Sequence of 5-HT1B (P28222 whole entry, species assumed): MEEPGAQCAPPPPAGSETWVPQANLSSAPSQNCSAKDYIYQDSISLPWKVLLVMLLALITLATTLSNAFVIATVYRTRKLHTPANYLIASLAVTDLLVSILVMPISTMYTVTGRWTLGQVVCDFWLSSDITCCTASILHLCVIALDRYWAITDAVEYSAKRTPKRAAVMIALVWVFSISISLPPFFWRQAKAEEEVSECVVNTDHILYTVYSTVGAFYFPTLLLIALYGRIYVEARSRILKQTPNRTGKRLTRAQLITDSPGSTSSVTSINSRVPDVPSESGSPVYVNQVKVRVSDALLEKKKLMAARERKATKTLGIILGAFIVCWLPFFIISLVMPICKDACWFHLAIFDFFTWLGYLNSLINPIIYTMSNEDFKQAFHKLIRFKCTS

## CNC(C)Cc1ccc2c(c1)OCO2 (stereo not drawn) [MDMA, 3,4-methylenedioxymethamphetamine]
[1]; read-out: EC50 for promoting neuritogenesis
  EC50: 7.41 nM
[1]; relative to ketamine
  Emax for promoting neuritogenesis, compared with ketamine: approximately twice that of ketamine
[2]
  binding to the 5-HT1B: does not bind
[3]; 29 of 72 participants
  nausea, proportion of participants: 40.3%
[3]; 52 of 72 participants
  anxiety, proportion of participants: 72.2%
[4]
  participants no longer diagnosable with PTSD: two-thirds
